Literature values as cited in patent publication US20220273779A1, “TAU PEPTIDE ANTIGENS AND ANTIBODIES BINDING THERETO FOR THE TREATMENT OF TAUOPATHIES” (The Board of Regents of the University of Texas System, priority 2018, published 2022).
Where two headings read alike, the source gives them in different places.

What was measured:
[1] = RRMS, first-line treatments

glatiramer acetate
Irritation at the injection site (intramuscular injections): ≤ 33%
Irritation at the injection site (subcutaneous injections): up to 90%
Reduction of relapses [1]: approximately 30%
